Data on one substance can be found in patent US9205130B2, “Orally administrable pharmaceutical pellet of epidermal growth factor” (CENTRO DE INGENIERIA GENETICA Y BIOTECNOLOGIA, priority 2010, dated 2015).

This experiment concerns 3T3 A31 cells. In words: Biological activity: induction of proliferation of 3T3 A31 cells, crystal violet. In kind it is cell-based, mouse. As to conditions: before being formulated in form of capsule. The protocol:
The activity of epidermal growth factor in capsules of example 1 packaged in blisters and stored at temperatures of 5±3° C. were tested. This biological test is based on the capacity of the epidermal growth factor human recombinant (EGF Hu-r) to induce the proliferation of cell lines of mouse embryos of 3T3/A3 which are extremely sensitive to contact inhibition cell division.
For determining the capability of induction of cell proliferation of EGF and its duration, the method comprises the quantification of the absorption of colorant crystal violet by the living cells 3T3 A31.
The preparation of samples of EGF comprises the addition of 100 ml of phosphate saline buffer (PBS1×) to the content of 10 capsules of Example 1, maintaining agitation for 15 minutes. The resultant suspension was centrifuged for 5 minutes at 9000 rpm and the aqueous solution was collected.
Cells 3T3 A31 in 96-plates at a concentration of 1.5×10^5 cells/mL were sown. These plates were incubated at 37° C., 5% CO2 and 95% humidity for 24 hours.
After completing the incubation time, cells were washed twice with 100 μl of PBS1× and then 100 μl of DMEM 1× without fetal bovine serum (SFB) was added to the medium and plates were incubated at 37° C., 5% CO2 and 95% humidity for another 24 hours. […]

As for “epidermal growth factor [epidermal growth factor human recombinant, before being formulated in form of capsule]”, the “Reference biological activity of EGF” value was 2×10^6 UI/mg.
